Data published in patent US10711036B2, “MALT1 inhibitors and uses thereof” (Cornell University, priority 2015, dated 2020).
*1 amine or outer side, *2 acyl side, *3 side chain or, on linkers, in order; H or OH if unused. Where a SMILES comes first, the peptide text is derived from it. [ ]: non-standard residue; d: D form. The star is where a group is joined. cisHyp = O=C(O)[C@@H]1C[C@H](O)CN1; Hydrocinnamoyl = O=C(CCc1ccccc1)*; Chg = N[C@H](C(=O)O)C1CCCCC1; Phg = N[C@H](C(=O)O)c1ccccc1; Tle = CC(C)(C)[C@H](N)C(=O)O; NMeV = CN[C@H](C(=O)O)C(C)C; αMeP = C[C@@]1(C(=O)O)CCCN1; Pip = O=C(O)[C@@H]1CCCCN1; ClZ = O=C(OCc1ccccc1Cl)*; Cbz = O=C(OCc1ccccc1)*; PhAc = O=C(Cc1ccccc1)*; CO = O=C([*:1])[*:2]; Bz = O=C(c1ccccc1)*; NHPh = c1ccc(N*)cc1; CH2F = FC*

Legend:
MALT1 = MALT1 (Homo sapiens (Human), UniProt Q9UDY8); test: Inhibition constants (Ki) for inhibition of MALT1; format: biochemical; conditions: 100 nM MALT1 used for the assay
Sequence of MALT1 (Q9UDY8 whole entry): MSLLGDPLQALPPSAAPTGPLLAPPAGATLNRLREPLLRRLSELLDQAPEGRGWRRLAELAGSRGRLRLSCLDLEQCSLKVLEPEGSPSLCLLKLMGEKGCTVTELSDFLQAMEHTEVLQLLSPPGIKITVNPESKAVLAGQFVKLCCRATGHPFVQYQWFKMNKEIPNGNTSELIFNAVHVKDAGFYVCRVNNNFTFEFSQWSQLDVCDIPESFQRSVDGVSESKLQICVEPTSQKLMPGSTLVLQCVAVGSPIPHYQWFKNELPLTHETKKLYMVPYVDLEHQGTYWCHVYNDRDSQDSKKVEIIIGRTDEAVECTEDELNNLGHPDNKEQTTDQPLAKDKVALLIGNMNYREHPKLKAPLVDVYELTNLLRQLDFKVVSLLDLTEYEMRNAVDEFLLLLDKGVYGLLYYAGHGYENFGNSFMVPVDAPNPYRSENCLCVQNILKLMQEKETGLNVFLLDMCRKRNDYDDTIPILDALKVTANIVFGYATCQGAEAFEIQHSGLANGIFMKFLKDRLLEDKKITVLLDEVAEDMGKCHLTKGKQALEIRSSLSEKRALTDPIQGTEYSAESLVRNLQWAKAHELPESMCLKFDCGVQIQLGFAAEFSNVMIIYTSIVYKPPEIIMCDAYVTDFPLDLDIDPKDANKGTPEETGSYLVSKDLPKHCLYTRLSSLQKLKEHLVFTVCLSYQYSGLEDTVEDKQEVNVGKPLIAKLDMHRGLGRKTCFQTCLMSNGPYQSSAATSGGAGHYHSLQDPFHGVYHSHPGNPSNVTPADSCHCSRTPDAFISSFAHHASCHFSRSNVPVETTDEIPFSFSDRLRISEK
Experimental: For exemplary compounds of the disclosure, Ki for inhibition of MALT1 was measured (Table E11). A concentration of 100 nM MALT1 was used for the assay.

OCI-LY3 = test: Cell growth inhibition assay (CellTiter-Glo, 96 hours), OCI-LY3; format: cell-based, human; conditions: OCI-LY3 cells, treated at t=0 and t=48 hours, ATP luminescence
Experimental: DLBCL cell lines were grown in exponential growth conditions during the 96 hours of treatment. Cells were treated twice: at t=0 and t=48 hours, and cell viability was determined by ATP quantification using a luminescent method ([…]-GLO, Promega, Madison, Wis.). Cell viability in drug-treated cells was normalized to vehicle controls (fractional viability) and results are given as 1-fractional viability.
Experiments were Performed in Triplicate.

## CC(C)(C)[C@H](NC(=O)OCc1ccccc1)C(=O)N1CCC[C@H]1C(=O)N[C@@H](CCCNC(=N)N)C(=O)CF [Compound 103] (Cbz-[Tle]-Pro-Arg-CH2F)
MALT1
  Ki: 43 nM
OCI-LY3; Homo sapiens
  GI50: 1440 nM

## N=C(N)NCCC[C@H](NC(=O)[C@@H]1CCCN1C(=O)[C@@H](NC(=O)OCc1ccccc1)c1ccccc1)C(=O)CF [Compound 104] (Cbz-[Phg]-Pro-Arg-CH2F)
MALT1
  Ki: 154 nM
OCI-LY3; Homo sapiens
  GI50: 8050 nM

## N=C(N)NCCC[C@H](NC(=O)[C@@H]1CCCN1C(=O)[C@@H](NC(=O)OCc1ccccc1)c1cccnc1)C(=O)CF [Compound 105]
MALT1
  Ki: 55 nM
OCI-LY3; Homo sapiens
  GI50: 4260 nM

## N=C(N)NCCC[C@H](NC(=O)[C@@H]1CCCN1C(=O)[C@H](NC(=O)OCc1ccccc1)c1cccnc1)C(=O)CF [Compound 106]
MALT1
  Ki: 146 nM
OCI-LY3; Homo sapiens
  GI50: 8430 nM

## N=C(N)NCCC[C@H](NC(=O)[C@@H]1CCCCN1C(=O)[C@@H](NC(=O)OCc1ccccc1)C1CCCCC1)C(=O)CF [Compound 108] (Cbz-[Chg]-[Pip]-Arg-CH2F)
MALT1
  Ki: 37 nM
OCI-LY3; Homo sapiens
  GI50: 1330 nM

## CC(C)[C@H](NC(=O)OCc1ccccc1)C(=O)N1C[C@@H](O)C[C@H]1C(=O)N[C@@H](CCCNC(=N)N)C(=O)CF [Compound 110] (Cbz-Val-[cisHyp]-Arg-CH2F)
MALT1
  Ki: 49 nM
OCI-LY3; Homo sapiens
  GI50: 1070 nM

## CC(C)[C@H](NC(=O)OCc1ccccc1)C(=O)N1CCC[C@@]1(C)C(=O)N[C@@H](CCCNC(=N)N)C(=O)CF [Compound 111] (Cbz-Val-[αMeP]-Arg-CH2F)
MALT1
  Ki: 158 nM
OCI-LY3; Homo sapiens
  GI50: 10500 nM

## CC(C)[C@H](NC(=O)c1ccccc1)C(=O)N1CCC[C@H]1C(=O)N[C@@H](CCCNC(=N)N)C(=O)CF [Compound 113] (Bz-Val-Pro-Arg-CH2F)
MALT1
  Ki: 40 nM
OCI-LY3; Homo sapiens
  GI50: 660 nM

## CC(C)[C@H](NC(=O)Cc1ccccc1)C(=O)N1CCC[C@H]1C(=O)N[C@@H](CCCNC(=N)N)C(=O)CF [Compound 117] (PhAc-Val-Pro-Arg-CH2F)
MALT1
  Ki: 42 nM
OCI-LY3; Homo sapiens
  GI50: 3370 nM

## CC(C)[C@H](NC(=O)Cc1cccc(Br)c1)C(=O)N1CCC[C@H]1C(=O)N[C@@H](CCCNC(=N)N)C(=O)CF [Compound 118]
MALT1
  Ki: 46 nM
OCI-LY3; Homo sapiens
  GI50: 2910 nM

## CC(C)[C@H](NC(=O)CCc1ccccc1)C(=O)N1CCC[C@H]1C(=O)N[C@@H](CCCNC(=N)N)C(=O)CF [Compound 119] (Hydrocinnamoyl-Val-Pro-Arg-CH2F)
MALT1
  Ki: 43 nM
OCI-LY3; Homo sapiens
  GI50: 1880 nM

## COc1ccccc1C(=O)N[C@H](C(=O)N1CCC[C@H]1C(=O)N[C@@H](CCCNC(=N)N)C(=O)CF)C(C)C [Compound 121]
MALT1
  Ki: 109 nM
OCI-LY3; Homo sapiens
  GI50: 7290 nM

## COc1cccc(C(=O)N[C@H](C(=O)N2CCC[C@H]2C(=O)N[C@@H](CCCNC(=N)N)C(=O)CF)C(C)C)c1 [Compound 122]
MALT1
  Ki: 75 nM
OCI-LY3; Homo sapiens
  GI50: 2000 nM

## COc1ccc(C(=O)N[C@H](C(=O)N2CCC[C@H]2C(=O)N[C@@H](CCCNC(=N)N)C(=O)CF)C(C)C)cc1 [Compound 123]
MALT1
  Ki: 50 nM
OCI-LY3; Homo sapiens
  GI50: 1670 nM

## CC(C)[C@H](NC(=O)c1cnn(C)c1)C(=O)N1CCC[C@H]1C(=O)N[C@@H](CCCNC(=N)N)C(=O)CF [Compound 124]
MALT1
  Ki: 100 nM
OCI-LY3; Homo sapiens
  GI50: 16800 nM

## Cc1nc(C(=O)N[C@H](C(=O)N2CCC[C@H]2C(=O)N[C@@H](CCCNC(=N)N)C(=O)CF)C(C)C)cs1 [Compound 125]
OCI-LY3; Homo sapiens
  GI50: 9650 nM

## CC(C)[C@H](NC(=O)c1ccc(C#N)cc1)C(=O)N1CCC[C@H]1C(=O)N[C@@H](CCCNC(=N)N)C(=O)CF [Compound 126]
MALT1
  Ki: 60 nM
OCI-LY3; Homo sapiens
  GI50: 6660 nM

## CC(C)[C@H](NC(=O)c1ccc(N2CCOCC2)cc1)C(=O)N1CCC[C@H]1C(=O)N[C@@H](CCCNC(=N)N)C(=O)CF [Compound 127]
MALT1
  Ki: 75 nM
OCI-LY3; Homo sapiens
  GI50: > 20000 nM

## CC(C)[C@H](NC(=O)c1csc(N2CCOCC2)n1)C(=O)N1CCC[C@H]1C(=O)N[C@@H](CCCNC(=N)N)C(=O)CF [Compound 128]
MALT1
  Ki: 111 nM
OCI-LY3; Homo sapiens
  GI50: > 20000 nM

## CC(C)[C@H](NC(=O)Nc1ccccc1)C(=O)N1CCC[C@H]1C(=O)N[C@@H](CCCNC(=N)N)C(=O)CF [Compound 129] ({NHPh-CO}-Val-Pro-Arg-CH2F)
MALT1
  Ki: 52 nM
OCI-LY3; Homo sapiens
  GI50: 1520 nM

## CC(C)[C@H](NS(=O)(=O)c1ccc(Br)cc1)C(=O)N1CCC[C@H]1C(=O)N[C@@H](CCCNC(=N)N)C(=O)CF [Compound 130]
OCI-LY3; Homo sapiens
  GI50: 3720 nM

## CC(C)[C@H](NC(=O)c1cccc(N2CCOCC2)c1)C(=O)N1CCC[C@H]1C(=O)N[C@@H](CCCNC(=N)N)C(=O)CF [Compound 131]
MALT1
  Ki: 58 nM
OCI-LY3; Homo sapiens
  GI50: 14500 nM

## CC(C)[C@H](NC(=O)c1cccc(N2CCN(C)CC2)c1)C(=O)N1CCC[C@H]1C(=O)N[C@@H](CCCNC(=N)N)C(=O)CF [Compound 132]
MALT1
  Ki: 175 nM
OCI-LY3; Homo sapiens
  GI50: > 20000 nM

## CC(C)[C@H](NC(=O)c1ccc(Br)s1)C(=O)N1CCC[C@H]1C(=O)N[C@@H](CCCNC(=N)N)C(=O)CF [Compound 138]
OCI-LY3; Homo sapiens
  GI50: 1240 nM

## N=C(N)NCCC[C@H](NC(=O)[C@@H]1CCCN1C(=O)[C@H](Cc1cccnc1)NC(=O)c1ccc(Br)cc1)C(=O)CF [Compound 142]
OCI-LY3; Homo sapiens
  GI50: 14100 nM

## CC(C)[C@H](NC(=O)c1ccc(Br)c(C#N)c1)C(=O)N1CCC[C@H]1C(=O)N[C@@H](CCCNC(=N)N)C(=O)CF [Compound 146]
OCI-LY3; Homo sapiens
  GI50: 500 nM

## CC(C)[C@H](NC(=O)c1ccc(Br)cc1)C(=O)N[C@@H](CO)C(=O)N[C@@H](CCCNC(=N)N)C(=O)CF [Compound 149]
MALT1
  Ki: 64 nM

## CC(C)[C@H](NC(=O)c1ccc2ccccc2c1)C(=O)N1CCC[C@H]1C(=O)N[C@@H](CCCNC(=N)N)C(=O)CF [Compound 152]
MALT1
  Ki: 47 nM

## CC(C)c1ccc(C(=O)N[C@H](C(=O)N2CCC[C@H]2C(=O)N[C@@H](CCCNC(=N)N)C(=O)CF)C(C)C)cc1 [Compound 163]
OCI-LY3; Homo sapiens
  GI50: 270 nM

## CC(C)[C@H](NC(=O)Nc1cccc(Cl)c1)C(=O)N1CCC[C@H]1C(=O)N[C@H](CCCNC(=N)N)C(=O)CF [Compound 166]
MALT1
  Ki: 557 nM

## CC(C)[C@H](NC(=O)OCc1ccc(Cl)cc1)C(=O)N1CCC[C@H]1C(=O)N[C@@H](CCCNC(=N)N)C(=O)CF [Compound 168]
MALT1
  Ki: 32 nM

## CC(C)[C@H](NC(=O)OCc1cccc(Cl)c1)C(=O)N1CCC[C@H]1C(=O)N[C@@H](CCCNC(=N)N)C(=O)CF [Compound 169]
MALT1
  Ki: 22 nM

## CC(C)[C@H](NC(=O)OCc1ccccc1Cl)C(=O)N1CCC[C@H]1C(=O)N[C@@H](CCCNC(=N)N)C(=O)CF [Compound 170] (ClZ-Val-Pro-Arg-CH2F)
MALT1
  Ki: 27 nM

## N=C(N)NCCC[C@H](NC(=O)[C@@H]1C[C@@H](O)CN1C(=O)[C@@H](NC(=O)c1ccc(Br)cc1)C1CCCCC1)C(=O)CF [Compound 172]
OCI-LY3; Homo sapiens
  GI50: 60 nM

## CC(C)[C@H](NC(=O)c1ccc(Br)cc1)C(=O)N1C[C@H](C#N)C[C@H]1C(=O)N[C@@H](CCCNC(=N)N)C(=O)CF [Compound 177]
MALT1
  Ki: 28 nM

## CC(C)[C@H](NC(=O)c1ccc(Br)cc1)C(=O)N[C@@H](C)C(=O)N[C@@H](CCCNC(=N)N)C(=O)CF [Compound 178]
MALT1
  Ki: 38 nM

## N=C(N)NCCC[C@H](NC(=O)[C@@H]1CCCN1C(=O)[C@H](CC1CCCCC1)NC(=O)c1ccc(Br)cc1)C(=O)CF [Compound 187]
MALT1
  Ki: 122 nM

## CC(C)[C@H](NC(=O)OCc1ccccc1)C(=O)N1CCC[C@H]1C(=O)N[C@@H](CCCNC1=NCCN1)C(=O)CF [Compound 201]
OCI-LY3
  GI50: > 5000 nM

## CN[C@H](C(=O)N1CCC[C@H]1C(=O)N[C@@H](CCCNC(=N)N)C(=O)CF)C(C)C [Compound 205] (H-[NMeV]-Pro-Arg-CH2F)
MALT1
  Ki: > 200 nM
